What was measured:
[1] = test system: MCF7; assay: Tumor cell proliferation (MTS), MCF7; assay type: cell-based; conditions: Homo sapiens, MCF7, 72 hours
Protocol: (§1) Measurement of in vivo cell proliferation:
(§2) Tumor cells were trypsinized and plated into 96-well plates at 3,000 per well and incubated in complete medium with 10% FBS for 24 hours. Compounds were added over a final concentration range of 100 μmol/L to 100 nmol/L in 0.1% DMSO and incubated for 72 hours in complete medium. The effects on proliferation were determined by addition of MTS reagent (Promega) according to the instruction, incubation for 2 hours at 37° C. in CO2 incubator, and record the absorbance at 490 nm using an ELISA plate reader.

[2] = test system: U937; assay: Tumor cell proliferation (MTS), U937; assay type: cell-based; conditions: Homo sapiens, U-937, U937, 72 hours
Protocol: as §1, §2

[3] = target: VEGFR2 (Homo sapiens, UniProt P35968); assay: VEGF receptor kinase ELISA bioassay; assay type: biochemical; conditions: ELISA kinase assay, 200 μM ATP
VEGFR2, sequence (P35968 807-1356): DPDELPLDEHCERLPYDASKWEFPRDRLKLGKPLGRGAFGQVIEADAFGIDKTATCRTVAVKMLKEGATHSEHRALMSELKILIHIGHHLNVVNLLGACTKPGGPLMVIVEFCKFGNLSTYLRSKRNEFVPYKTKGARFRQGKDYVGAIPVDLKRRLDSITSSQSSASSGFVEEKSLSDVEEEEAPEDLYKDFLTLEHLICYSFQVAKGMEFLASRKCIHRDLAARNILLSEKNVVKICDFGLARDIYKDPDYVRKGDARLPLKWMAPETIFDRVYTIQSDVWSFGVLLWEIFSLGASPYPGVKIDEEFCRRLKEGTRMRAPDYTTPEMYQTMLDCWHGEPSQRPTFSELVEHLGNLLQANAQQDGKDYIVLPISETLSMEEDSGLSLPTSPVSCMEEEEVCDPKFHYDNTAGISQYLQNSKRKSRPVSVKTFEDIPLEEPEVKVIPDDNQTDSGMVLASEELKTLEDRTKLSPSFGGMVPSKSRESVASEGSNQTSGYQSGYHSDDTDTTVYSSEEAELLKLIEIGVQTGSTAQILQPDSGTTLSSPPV

[4] = test system: total HDAC enzyme; assay: Total HDAC enzyme activity, HDAC Fluorimetric Assay (HeLa extract); assay type: biochemical, human
Protocol: Measurement of in vitro inhibition of total HDAC enzyme activity:
The in vitro inhibition of total HDAC enzyme was determined by HDAC Fluorimetric Assay/Drug Discovery Kit (BIOMOL) according to manufacture's instruction. • 1. Add Assay buffer, diluted trichostatin A or test inhibitor to appropriate wells of the microtiter plate. Following table lists examples of various assay types and the additions required for each test.
• 2. Add diluted HeLa extract or other HDAC sample to all wells except those that are to be “No Enzyme Controls” (Blank). • 3. Allow diluted Fluor de Lys™ Substrate and the samples in the microtiter plate to equilibrate to assay temperature (25° C.). • 4. Initiate HDAC reactions by adding diluted substrate (25 μl) to each well and mixing thoroughly. • 5. Allow HDAC reactions to proceed for desired length of time and then stop them by addition of Fluor de Lys™ Developer (50 μl). Incubate plate at room temperature (25° C.) for 10-15 min. • 6. Read samples in a microtiter-plate reading fluorimeter capable of excitation at a wavelength in the range 350-380 nm and detection of emitted light in the range 440-460 nm. Measurement of in vivo inhibition of HDAC subtype activity: […]

[5] = test system: Mo7e cells (SCF dependent); assay: c-Kit ligand (SCF) dependent cell proliferation; assay type: cell-based; conditions: SCF 50 ng/ml, 72 hours, MTS
Protocol: SCF dependent cell proliferation:
Mo7e cells (SCF dependent) were plated into 96-well plates at 15000 per well and incubated in 1640 medium with 10% FBS and SCF (50 ng/ml) for 24 hours. Compounds were added and incubated for 72 hours at 37° C. in CO2 incubator. The effects on proliferation were determined by addition of MTS reagent (Promega) according to the instruction, incubation for 2 hours at 37° C. in CO2 incubator, and record the absorbance at 490 nm using an ELISA plate reader.

[6] = test system: HCT-8; assay: Tumor cell proliferation (MTS), HCT-8; assay type: cell-based; conditions: Homo sapiens, HCT-8, 72 hours
Protocol: as §1, §2

[7] = test system: Raji; assay: Tumor cell proliferation (MTS), Raji; assay type: cell-based; conditions: Homo sapiens, 72 hours
Protocol: as §1, §2

[8] = target: T1, HDAC7 (Homo sapiens, UniProt Q8WUI4); assay: Nur77 reporter assay in HeLa cells; assay type: cell-based; conditions: relative to CS055 at 3 μM
T1 construct: endogenous in cells; host or cells: HeLa
T1 sequence (Q8WUI4 1-952): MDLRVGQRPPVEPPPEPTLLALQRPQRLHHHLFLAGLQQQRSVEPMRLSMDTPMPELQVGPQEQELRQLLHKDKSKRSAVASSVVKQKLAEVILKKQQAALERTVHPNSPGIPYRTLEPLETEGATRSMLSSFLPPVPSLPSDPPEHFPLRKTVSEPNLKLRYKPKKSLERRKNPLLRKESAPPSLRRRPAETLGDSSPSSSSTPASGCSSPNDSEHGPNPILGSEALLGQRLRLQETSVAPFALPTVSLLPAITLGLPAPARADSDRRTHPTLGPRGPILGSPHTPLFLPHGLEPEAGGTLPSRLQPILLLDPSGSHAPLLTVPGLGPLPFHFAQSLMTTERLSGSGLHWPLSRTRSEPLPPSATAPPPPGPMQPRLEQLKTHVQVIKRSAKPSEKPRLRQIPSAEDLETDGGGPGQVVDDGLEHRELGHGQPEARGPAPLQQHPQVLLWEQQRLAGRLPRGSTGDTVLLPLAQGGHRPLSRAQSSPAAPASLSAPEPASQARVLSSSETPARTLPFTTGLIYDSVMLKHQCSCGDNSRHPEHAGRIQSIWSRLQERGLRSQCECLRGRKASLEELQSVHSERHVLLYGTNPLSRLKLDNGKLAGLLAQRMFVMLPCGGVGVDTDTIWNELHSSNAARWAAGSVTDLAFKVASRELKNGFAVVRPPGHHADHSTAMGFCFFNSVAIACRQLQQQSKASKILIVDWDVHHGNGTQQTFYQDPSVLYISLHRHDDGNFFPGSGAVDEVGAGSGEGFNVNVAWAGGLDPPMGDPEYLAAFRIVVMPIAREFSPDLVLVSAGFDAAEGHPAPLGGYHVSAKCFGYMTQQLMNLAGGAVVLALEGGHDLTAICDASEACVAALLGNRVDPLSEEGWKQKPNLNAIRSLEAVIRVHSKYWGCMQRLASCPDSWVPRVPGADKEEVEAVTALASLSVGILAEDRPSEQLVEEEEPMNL
Protocol: HDAC subtype selectivity inhibition assay of tested compounds was carried out by several reporter gene assays experiments. Briefly, HeLa cells were seeded in 96-well plates the day before transfection to give a confluence of 50-80%. Cells were transfected with one of reporter gene plasmid containing a promoter sequence or response element upstream of a luciferase gene construct using FuGene6 transfection reagent according to the manufacturer's instruction (Roche). The promoters or response elements including p21-promoter, gdf11-promoter, MEF-binding element (MEF2), Nur77-promoter were fused upstream to the luciferase gene reporter construct. For normalizing the transfection efficiency, a GFP expression plasmid was cotransfected. Cells were allowed to express protein for 24 hours followed by addition of individual compounds or the vehicle (DMSO). 24 hours later the cells were harvested, and the luciferase assay and GFP assay were performed using corresponding assay kits according to the manufacturer's instructions (Promega).

[9] = test system: HL60; assay: Tumor cell proliferation (MTS), HL60; assay type: cell-based; conditions: Homo sapiens, HL-60, HL60, 72 hours
Protocol: as §1, §2

| Compound | GI50 [1] | GI50 [2] | IC50 [3] | % inhibition of total HDAC enzyme activity at 30 μM [4] | GI50 [5] | GI50 [6] | GI50 [7] | HDAC7 (Nur77 reporter assay) % Max Resp of CS055 at 3 μM [8] | GI50 [9] |
| --- | --- | --- | --- | --- | --- | --- | --- | --- | --- |
| Cc1[nH]c(/C=N/N=C2\C(=O)Nc3ccc(F)cc32)c(C)c1C(=O)NCCCNc1ccc(C(=O)Nc2ccc(F)cc2N)cn1 [Example 17, N-(2-amino-4-fluorophenyl)-6-(3-(2-(((5-fluoro-2-oxoindolin-3-ylidene)-hydrazono)methyl)-3,5-dimethyl-1H-pyrrole-4-carboxamido)propylamino)nicotinamide] | > 60 µM | > 60 µM | > 1000 nM | 4.00% | > 1000 nM | > 60 µM | > 60 µM | 3.5% | > 60 µM |
| Cc1[nH]c(/C=C2\C(=O)Nc3ccc(F)cc32)c(C)c1C(=O)NCCCCNc1ccc(C(=O)Nc2ccc(F)cc2N)cn1 [Example 19, (Z)-N-(2-amino-4-fluorophenyl)-6-(4-(2-((5-fluoro-2-oxoindolin-3-ylidene)-methyl)-3,5-dimethyl-1H-pyrrole-4-carboxamido)butylamino)nicotinamide] | > 60 µM | > 60 µM | 157 nM | 7.30% | 42 nM | > 60 µM | > 60 µM | 6.0% | > 60 µM |
| Cc1[nH]c(/C=N/N=C2\C(=O)Nc3ccc(F)cc32)c(C)c1C(=O)NCCCCNc1ccc(C(=O)Nc2ccc(F)cc2N)cn1 [Example 20, N-(2-amino-4-fluorophenyl)-6-(4-(2-(((5-fluoro-2-oxoindolin-3-ylidene)-hydrazono)methyl)-3,5-dimethyl-1H-pyrrole-4-carboxamido)butylamino)nicotinamide] | > 60 µM | > 60 µM | > 1000 nM | 3.50% | > 1000 nM | > 60 µM | > 60 µM | 1.0% | > 60 µM |

— patent US8158656B2, “2-indolinone derivatives as multi-target protein kinase inhibitors and histone deacetylase inhibitors” (Shenzhen Chipscreen Biosciences Ltd., priority 2008, dated 2012)
